We go through two compounds from patent publication US12090225B2 (Avalyn Pharma Inc., priority 2018, dated 2024).

Marks after values point to notes of the source that are not given here.

The nature of data set [1]: Allometric dose scaling from mouse and rat to human. As to conditions: for Predicted human half-life: Oral.
For data set [2] the following is noted: cited from earlier work.
Data set [3] is described as follows: 7 day stability testing of salts (40° C./75% RH, 80° C., ambient light; HPLC purity, XRPD). Format: physicochemical. The following applies: for Purity (%) / XRPD pattern after 7 day stability testing: listed as HBr salt. As to the method: High Performance Liquid Chromatography-Ultraviolet Detection (HPLC-UV): Instrument: Dionex Ultimate 3000; Column: Acquity CSH C18 100 mm×2.1 mm 1.7 μm; Column Temperature: 50° C.; Autosampler Temperature: Ambient; UV wavelength: 210 nm; Injection Volume: 4 μL; Flow Rate: 0.6 mL/min; Mobile Phase A: 0.1% formic acid in water; Mobile Phase B: 0.1% formic acid in acetonitrile. The HPLC method used the gradient in Table 2.
FT-IR appeared to be consistent with the structure. […] The material was physically stable to changes in temperature and humidity when stored for one week.
A new, poorly crystalline pattern was produced when stored at 40° C./75% RH—Pattern 4.
Purity of these materials remained unchanged (as shown in Table) apart from the sample stored at ambient light, where a 0.5% drop in purity was observed.

Consider `COC(=O)c1ccc2c(c1)NC(=O)/C2=C(\Nc1ccc(N(C)C(=O)CN2CCN(C)CC2)cc1)c1ccccc1` [Nintedanib, methyl (3Z)-3-[[4-[methyl-[2-(4-methylpiperazin-1-yl)acetyl]amino]anilino]-phenylmethylidene]-2-oxo-1H-indole-6-carboxylate], for which the Predicted human half-life in data set [1] (line of Mouse Oral 30.0 mg/kg) and in data set [1] (line of Rat Oral 60.0 mg/kg) was 13.6 h throughout. Moreover, the “Predicted human ELF half-life (alpha)” value in data set [1] (from Mouse Inhaled […], 21-fold longer than animal lung half-life) was 84^c min; in data set [1] (from Mouse Inhaled […], ELF half-life 21-fold longer than animal lung half-life) it was 84^c min; in data set [1] (from Rat Inhaled 0.05 mg/kg, 21-fold longer than animal lung half-life) it was 294^c min; in data set [1] (from Rat Inhaled 0.25 mg/kg, 21-fold longer than animal lung half-life), 294^c min; in data set [1] (from Rat Inhaled 0.375 mg/kg, 21-fold longer than animal lung half-life), 294^c min. Also, the “administered nintedanib excreted in the urine” value in data set [2] (in vivo) is given as “About 80%”. Further, in data set [2] (oral nintedanib), the oral bioavailability was 5%.

Turning to `COC(=O)c1ccc2c(c1)NC(=O)/C2=C(\Nc1ccc(N(C)C(=O)CN2CCN(C)CC2)cc1)c1ccccc1` [Nintedanib HBr], the “Purity (%)” value in data set [3] (40° C./75% RH, 7 day stability testing) is given as 99.7%; in data set [3] (80° C., 7 day stability testing), 99.6%; in data set [3] (Ambient, 7 day stability testing), 99.2%; in data set [3] (Input), 99.7%. Further, the “XRPD pattern after 7 day stability testing” value was “mixture of Pattern 1 and 4” in data set [3] (40° C./75% RH); “remain Pattern 1” in data set [3] (80° C. and ambient conditions/light). Also, the drop in purity in data set [3] (stored at ambient light, 7 day) is reported as 0.5%.
